According to patent US10787607B2, “High efficiency fluorescent compound and method for preparing the same” (SNU R&DB FOUNDATION, priority 2011, dated 2020):

What was measured:
[1] = system: breast epithelial cell line; assay: Cytomorphology Test (microscopic examination of cultured cells); assay type: cell-based; details: cultured about 72 hours, FIG. 12
Experimental: (§1) In the presence of a test compound or a comparative compound, a cell line is cultured for a certain period of time (about 72 hours) and then a cytotoxicity test is conducted. As a control group, a blank test is conducted in the same manner as above without adding any compound including the test compound and the comparative compound.

[2] = system: breast epithelial cell; assay: Trypan Blue Exclusion Test; assay type: cell-based; details: both test concentrations 1 μM and 10 μM, FIG. 13
Experimental: as §1

[3] = system: Caspase-3 and PARP in breast epithelial cell line; assay: Western Blotting Test, breast epithelial cell line; assay type: cell-based; details: breast epithelial cell line, 1, 10 and 100 μM, FIG. 14
Experimental: (§2) After a certain period of time, the degree of cell extinction is evaluated by examining the degree of expression of extinction and damage of a specific factor by using Western Blotting Test and the result is shown in FIG. 14.

[4] = system: Caspase-3 and PARP in osteosarcoma cell line (U2OS); assay: Western Blotting Test, osteosarcoma cell line (U2OS); assay type: cell-based; details: U2OS cells, 10 μM, FIG. 14
Experimental: as §2

[5] = in ethanol; cited from earlier work

In the case of CC(=O)/C=C/c1ccc2cc(O)cc(O)c2c1 [Example 1, (E)-4-(6,8-dihydroxynaphthalen-2-yl)but-3-en-2-one], the “cytomorphology and number change of the cultured cell vs control group” value [1] is reported as “no significant difference from the control group”, the “number of cells alive (trypan blue) vs control group” value [2] is reported as “number of cells similar to that of the control group” and the “Western blot peaks from cell extinction and damage (Caspase-3, PARP)” value [3] is reported as “no peak at 17 kDa, 19 kDa and 89 kDa positions”.

For COc1cc([C@@H]2c3cc4c(cc3[C@@H](O[C@@H]3O[C@@H]5CO[C@@H](C)O[C@H]5[C@H](O)[C@H]3O)[C@H]3COC(=O)[C@H]23)OCO4)cc(OC)c1O [Etoposide], the “Western blot peaks from cell extinction and damage (Caspase-3, PARP)” value [4] was “significantly remarkable peak at 17 kDa, 19 kDa and 89 kDa positions”.

In the case of CCN=c1cc2oc3cc(NCC)c(C)cc3c(-c3ccccc3C(=O)OCC)c-2cc1C.Cl [rhodamin 6G], the “quantum yield of reference standard” value [5] is listed as 0.95.
